{"source": "patent US8293764B2", "about": "“Compositions and methods for disruption of BRCA2-Rad51 interaction” (The Regents of the University of California, priority 2004, dated 2012)", "key": {"Rad51-BRC repeat complex": {"molecular_target": "T1, Rad51-BRC repeat complex (Homo sapiens, UniProt Q06609)", "T1 sequence (Q06609 1-339)": "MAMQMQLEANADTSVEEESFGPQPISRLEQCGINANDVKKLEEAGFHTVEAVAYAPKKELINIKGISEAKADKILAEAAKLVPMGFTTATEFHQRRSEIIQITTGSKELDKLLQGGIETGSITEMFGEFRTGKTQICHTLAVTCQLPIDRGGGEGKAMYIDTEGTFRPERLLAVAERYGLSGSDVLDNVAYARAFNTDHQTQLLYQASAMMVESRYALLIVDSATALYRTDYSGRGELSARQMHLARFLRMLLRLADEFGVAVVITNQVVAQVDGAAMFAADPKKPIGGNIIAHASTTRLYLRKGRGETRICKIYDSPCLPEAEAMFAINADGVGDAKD", "test": "SPR solution competition assay", "type": "binding", "settings": "SPR solution competition format; read-out: median inhibitory concentration (IC50), displacement of BRC repeat from complex with Rad51", "from_the_text": "If the IBR compound indeed occupies the hydrophobic pocket for the entrance of Phe1524 in BRCA2, the oligomerization of Rad51 should also be affected since they share the same binding region. […] Therefore, if IBR2 mimics the BRC hairpin structure, the Rad51 multimerization will also be inhibited by IBR2. We compared the gel filtration profile of Rad51 between with and without IBR2. […] The inhibition of the Rad51 and BRC repeat binding was further analyzed by SPR technology in a solution competition format as previously described (see e.g., Science 303, 844-848).\nSurface Plasmon Resonance binding assays: The assays were performed at 25° C. in HBSD buffer (10 mM HEPES, 150 mM NaCl, 0.1% DMSO) on Biacore3000 (Biacore Inc.). Sensor chips NTA or glutathione-modified CM5 were used to capture His-Rad51 or GST-BRC1, respectively. The capture level was about 130 resonance units at a flow rate of 5 μl/min. For sequential binding assays, chips were treated with compounds (1 μM) and then proteins (50 μg/ml). The retained resonance units (RU) were recorded and averaged from triplicate experiments. For competition assays (Vassilev et al., 2004), IBR2 was incubated with 50 μg/ml BRC at 25° C. for 15 minutes prior to use. Relative binding percentages were calculated with respect to the binding without IBR2 and averaged from two independent experiments."}, "MCF-7 cells": {"system": "MCF-7 cells", "test": "S phase entry (BrdU) after nocodazole synchronization", "type": "cell-based", "settings": "cells synchronized at M phase by nocodazole, re-plated", "protocol": "To test whether IBR2 treated cells are arrested at G1 and thus fail to enter S phase, MCF-7 cells were synchronized at M phase by nocodazole treatment and then re-plated to allow the entry to G1 phase. At different time points, cells were pulse labeled with BrdU to monitor S phase entry.\nCell culture, cell synchronization, BrdU labeling and determination of mitotic index: Breast cancer cell lines and MEF cell lines were cultured in high-glucose Dulbecco modified Eagle medium containing 10% fetal bovine serum. MCF-10A cells were cultured as described previously (Debnath et al., 2003). Cell synchronization at M phase was achieved by treatment with 0.1 μg/ml nocodazole for 8 hours. Cell synchronization at G1/S boundary was achieved by treatment with 1 mM hydroxyurea for 17 hours, 9 hours of release and again with 1 mM hydroxyurea for 14 hours. For BrdU labeling, cells were incubated with BrdU for 30 minutes and fixed for BrdU immunostaining using a BrdU labeling kit (Amersham Biosciences). For determination of mitotic index, cells were fixed in 4% formaldehyde in PBS containing 0.1 μg/ml DAPI for 30 minutes at room temperature and examined by fluorescence microscopy. 500-1000 nuclei per sample were counted to determine the number of M phase cells which only includes prometaphase, metaphase, anaphase and telophase."}, "[1]": {"system": "IR-induced Rad51 foci in MCF-7 breast cancer cells", "test": "IR-induced Rad51 foci formation (immunostaining)", "type": "cell-based", "settings": "MCF-7 cells", "quoted_text": "These compounds were then tested for their effects on IR-induced Rad51 foci formation in MCF-7 breast cancer cells.\nTo test this possibility, the number of the MCF-7 cells that formed IR-induced Rad51 foci was measured after IBR2 treatment.\nImmunostaining Rad51 and g-H2AX foci: MCF-7 cells were treated with 20 μM IBR2 for 7 or 19 hours and then g-irradiated at 20 Gy. Cells were incubated for an additional 5 hours with 20 μM IBR2, then fixed with 4% paraformaldehyde in PBS containing 0.5% Triton X-100. The fixed cells were incubated with a-Rad51 antibody (mAb 1F5) or a-g-H2AX antibody (Upstate). Rad51 and g-H2AX foci positive cells were subsequently counted as described (Chen et al., 1999)."}, "Rad51 in MCF-7 cells": {"system": "Rad51 in MCF-7 cells", "test": "Rad51 stability assay with cyclohexamide", "type": "cell-based", "settings": "with cyclohexamide; control cells 5.5 hours", "from_the_text": "To examine the impact of IBR2 on Rad51 protein expression, IBR2 treated MCF-7 cells was examined by straight western blot probed with a panel of antibodies against BRCA2, Rad51, Rad50, p84 and Rb. […] Consistent with our FACS analysis (FIG. 4A), the hypo-phosphorylated form of Rb, a marker for G1 phase, was the major form observed in the later time points, further confirming that IBR2 arrests cells at G1 phase (FIG. 4A). It has been reported that BRCA2 level is cell cycle dependent, which expresses low in G1 phase and peaks at G1/S boundary. Therefore the decreased level of BRCA2 in IBR2 treated cells may be due to G1 phase arrest. Different from BRCA2 protein, Rad51 protein is expressed constant throughout the cell cycle in MCF-7 cells (data not shown). Therefore, loss of Rad51 protein may be the direct effect of IBR2 treatment instead of the consequence of G1 arrest. […]\nWestern blot analysis: Cells were treated with […] or 50 μg/ml cycloheximide (CHX) or 1 μM MG132 and harvested at different time points for western blot analysis. […] The intensity of bands was quantified by densitometry using Labworks 4.5 software. The relative value of the band intensity was calculated with respect to that of untreated sample after normalization with the p84 signal."}, "CAPAN-1": {"system": "CAPAN-1", "test": "Sensitivity of BRCA2-truncated pancreatic cancer cell line", "type": "cell-based", "settings": "preliminary results", "from_the_text": "The absence of BRCA2 in cells also appears to have a significant impact on Rad51 stability rendering them much more sensitive to IBR2 treatment. […] It is therefore contemplated that IBR2 may be particularly useful in treating cancer cells lacking functional BRCA2 (or having a reduced BRCA2 expression) albeit only a small fraction of cancer."}}, "note": "Entries after “also recorded” stand apart in the source; their conditions may differ."}
{"smiles": "O=S(=O)(Cc1ccccc1)N1C=Cc2ccccc2C1c1c[nH]c2ccccc12", "note": "(centres unmarked) [IBR2, 2-(benzylsulfonyl)-1-(1H-indol-3-yl)-1,2-dihydroisoquinoline]", "values": [{"measurement": "IC50", "setting": "Rad51-BRC repeat complex", "value": "~115", "unit": "nM"}, {"measurement": "S phase entry (BrdU positive cells)", "setting": "MCF-7 cells", "value": "completely arrested at G1 and failed to enter S phase"}, {"measurement": "IR-induced Rad51 foci formation", "setting": "[1]", "value": "dramatically reduced Rad51 foci formation; also recorded: significantly reduced IR-induced Rad51 foci formation"}, {"measurement": "half-life of Rad51", "setting": "Rad51 in MCF-7 cells", "value": 1.5, "unit": "h"}, {"measurement": "sensitivity of CAPAN-1 to IBR2", "setting": "CAPAN-1", "value": "significant sensitivity"}]}
